According to publication PMC12016938, “A small molecule PKCε inhibitor reduces hyperalgesia induced by paclitaxel or opioid withdrawal” (JCI Insight, 2025):
“And” between values parts separate entries of the source, which are not always exact repeats. Equal values may be shown once. “Also recorded” adds a separate entry of the source.

Tested on: somatic signs of morphine withdrawal
Test: Somatic signs of morphine withdrawal precipitated by naloxone
Format: in vivo, DBA/2J mice
Design: key to Score: Rearing / Score: Teeth chatter / Score: Body shakes / Score: Wall climbing / Score: Backpedaling / Score: Hopping: score of 1 per occurrence and episode; key to Global Withdrawal Score (sum of all scores): sum of behavior scores, 1 point per occurrence/episode
Details: for Global Withdrawal Score (sum of all scores) / Score: Backpedaling / Score: Body shakes / Score: Hopping / Score: Rearing / Score: Teeth chatter / Score: Wall climbing: individual mice, 20 min interval; for Global Withdrawal Score (sum of all scores): after naloxone (5 mg/kg, i.p.); for Score: Backpedaling / Score: Body shakes / Score: Hopping / Score: Rearing / Score: Teeth chatter / Score: Wall climbing: number of observations after naloxone (5 mg/kg, i.p.)
Procedure: In addition to hyperalgesia, withdrawal from repeated administration of morphine produces somatic signs of withdrawal and conditioned place aversion. We tested the effects of CP612 on these responses. […] Two hours after this last injection of saline or morphine, mice were administered naloxone (5 mg/kg, i.p.) to precipitate somatic signs of withdrawal and conditioned place aversion. Withdrawal from repeated administration of morphine evoked somatic signs of withdrawal (Figure 11, A–C, and Supplemental Figure 2); only the highest dose of CP612 (40 mg/kg) reduced them (Figure 11, A–C) [H PKC inhibition (3, n = 62) = 33.34, P < 0.001]. Withdrawal from repeated administration of morphine also evoked conditioned place aversion (Figure 11, A and C) [F PKC inhibition (5,78) = 7.16, P < 0.001; mice receiving repeated administration of saline with vehicle versus mice receiving repeated administration of morphine with vehicle, P < 0.001], and this was not modified by CP612 at any dose tested (all P > 0.079).
The place conditioning apparatus was an acrylic box enclosed in light- and sound-attenuating, ventilated chambers (MED Associates). The box had 2 compartments separated by a removable sliding door. […] The dimensions of each compartment were 13.5 × 27 × 17 cm. Infrared light beams and photodetectors located along the walls of the box measured general activity and location of the mouse in each compartment, which were recorded using Activity Monitor version 7.0.5.10 software (Med Associates). On day 0 (pretest), drug-naive mice were acclimated for 15 minutes to the place conditioning apparatus without the sliding door, so they had free access to both compartments of the apparatus. This established a baseline side preference, based on the amount of time spent in each compartment. […] On day 6 (conditioning day), mice were pretreated with vehicle (10 mL/kg, i.p.) or CP612 (5, 10, 20, or 40 mg/kg, i.p.), followed by a single injection of morphine (100 mg/kg, i.p.) 4 hours later. Two hours after this last injection of morphine, mice were administered naloxone (5 mg/kg, i.p.), to precipitate withdrawal, and were immediately confined to 1 side of the conditioning apparatus for 20 minutes. During this conditioning period, mice were filmed (Raspberry Pi Camera) to assess somatic signs of withdrawal ([39]). Given the limited number of cameras and the poor quality of some videos, we were only able to film a subset of mice. The following behaviors were given a score of 1 per occurrence and episode: body shakes (paw tremors and wet dog shakes), teeth chatter, rearing, hopping, wall climbing, and backpedaling. These scores were summed to obtain a global withdrawal score and were obtained from an independent observer who was blind to the experimental conditions. A subset of videos was scored by 2 observers, to ensure internal validity (Cronbach’s α = 0.980, Correlation Observer r = 0.97, slope 1.15, P < 0.005). On day 7 (test day), mice were placed in the conditioning apparatus with free access to both compartments, for 15 minutes. We recorded the time spent in each compartment.
Gregory-Flores et al. (Supplementary Table and Figures)
Figure S2. Behavioral scores of morphine withdrawal precipitated by naloxone. Male mice

In the case of N[C@H](CNC(=O)C1(c2ccc(Cl)cc2)CCCC1)c1ccc(C(=O)Nc2ccncc2)cc1 [CP612], the “Global Withdrawal Score (sum of all scores)” value (Morphine + CP612 10 mg/kg) is reported as 26 and 36 and 21 and 32 and 23 and 19 and 28 and 25 and 22 and 8 and 11 and 13 and 12, the “Score: Backpedaling” value (Morphine + CP612 10 mg/kg) is reported as 0 and 2 and 1 and the “Score: Body shakes” value (Morphine + CP612 10 mg/kg) is reported as 6 and 9 and 7 and 10 and 2 and 11 and 8 and 1. The “Score: Hopping” value (Morphine + CP612 10 mg/kg) was 0 and 1, the “Score: Rearing” value (Morphine + CP612 10 mg/kg) was 16 and 15 and 9 and 10 and 7 and 13 and 12 and 2 and 3 and 8 and the “Score: Teeth chatter” value (Morphine + CP612 10 mg/kg) was 3 and 4 and 2 and 0 and 1. The “Score: Wall climbing” value (Morphine + CP612 10 mg/kg) was 1 and 7 and 2 and 3 and 0 and 4 and 5, the “Global Withdrawal Score (sum of all scores)” value (Morphine + CP612 40 mg/kg) was 17 and 23 and 18 and 11 and 8 and 4 and 10 and 13 and 9 and the “Score: Backpedaling” value (Morphine + CP612 40 mg/kg) was 3.5 and 0 and 1. For the same compound, the “Score: Body shakes” value (Morphine + CP612 40 mg/kg) was 1 and 5 and 9 and 2 and 0, the “Score: Hopping” value (Morphine + CP612 40 mg/kg) was 0.5 and 0 and 1 and the “Score: Rearing” value (Morphine + CP612 40 mg/kg) was 9 and 14 and 2 and 4 and 1 and 6 and 7 and 8. For the same compound, the “Score: Teeth chatter” value (Morphine + CP612 40 mg/kg) was 0.5 and 3 and 5 and 2 and 1 and 0, the “Score: Wall climbing” value (Morphine + CP612 40 mg/kg) was 2 and 1 and 0 and 3 and the “Somatic signs of naloxone-precipitated morphine withdrawal” value (male DBA/2J mice, CP612 10 mg/kg i.p. (low dose)) was “evoked signs of withdrawal”. The “Effect on somatic signs of naloxone-precipitated morphine withdrawal” value (male DBA/2J mice, CP612 40 mg/kg i.p., 40 mg/kg) was “attenuated; also recorded: reduced; also recorded: decreased”.
